The values that follow come from patent US20090306373A1, “4,7-DIHYDROTHIENO[2,3-B]PYRIDINE COMPOUNDS AND PHARMACEUTICAL COMPOSITIONS” (priority 2005, published 2009).

This test concerns alpha-MyHC. The test can be described thus: alpha-MyHC cytoblot in neonatal rat ventricular myocytes (NRVM). The test is classed as cell-based. Particulars: for Max Plateau: fitted maximum, percent fraction of low control (vehicle), in %; for EC50: concentration giving 50% of maximum response.
Setting [1] is: Rattus norvegicus, Ventricular myocyte, Table 4, 72 hours.

On to `CCC1=C(C(=O)OC)C(c2cc(F)cc(F)c2)c2c(sc(C(=O)c3ccccc3)c2N)N1` (centres unmarked) [Compound 172], for which the “Max Plateau” value (Table 2, 72 hours) came out at 304.08.

As for `CCOC(=O)C1=C(CC)Nc2sc(C(=O)c3ccc(F)c(F)c3)c(N)c2C1c1ccncc1F` (centres unmarked) [Compound 173], the “Max Plateau” value (Table 2, 72 hours) is given as 257.43.

For `CCOC(=O)C1=C(CC)Nc2sc(C(=O)c3cccnc3)c(N)c2C1c1ccncc1F` (centres unmarked) [Compound 174, 3-amino-6-ethyl-4-(3 fluoro-pyridin-4-yl)-2-(pyridine-3-carbonyl)-4,7 dihydro-thieno[2,3-b]pyridine-5-carboxylic acid ethyl ester], for the setting “Rattus norvegicus, Ventricular myocyte, Table 2, 72 hours”, the EC50 (in general, the concentration giving half of the maximal effect) was determined as 21.9 nM. That is a double-digit nanomolar value.

Regarding `CCOC(=O)C1=C(C)Nc2sc(C(=O)c3cccc(Br)c3)c(N)c2C1(C)c1ccccc1` (centres unmarked) [Compound 197], under “Table 4, 72 hours”, the EC50 turned out to be 792 nM and the “Max Plateau” value was 159.55 ± 10.94.

As to `CCOC(=O)C1=C(C)Nc2sc(C(=O)c3ccccc3)c(N)c2C1(C)c1ccccc1` (centres unmarked) [Compound 206], it took 936 nM to reach a half-maximal effect under setting [1] (EC50).

For `CC(=O)C1=C(C)Nc2sc(C(=O)c3ccc(Cl)c(Cl)c3)c(N)c2C1(C)c1cccc(F)c1` (centres unmarked) [Compound 207, 1-[3-amino-2-(3,4 dichloro-benzoyl)-4-(3 fluoro-phenyl)-4,6-dimethyl-4,7 dihydro-thieno[2,3-b]pyridin-5-yl]-ethanone], the EC50 under setting [1] is 3340 nM.

`CC(=O)C1=C(C)N(C)c2sc(C(=O)c3ccccc3)c(N)c2C1c1ccccc1` (centres unmarked) [Compound 208, 1-(3-amino-2-benzoyl-6,7 dimethyl-4-phenyl-4,7 dihydro-thieno[2,3-b]pyridin-5-yl)-ethanone] gave an EC50 (Rattus norvegicus, Ventricular myocyte, Table 5, 72 hours) of 3430 nM.
